Experimental data published in patent US20180263979A1, “COMBINATION OF RAF INHIBITORS AND AURORA KINASE INHIBITORS” (MILLENNIUM PHARMACEUTICALS, INC., priority 2014, published 2018).
Like-named read-outs stand apart in the source and are kept apart here.

Assays:
[1] = test system: SK-MEL-2 human melanoma xenograft (NRAS mutant); assay type: in vivo; conditions: for Non-Specific Deaths / Regression (100%) / Tumor Free on Day 74: n=8; for Delta AUC: vs vehicle
Procedure: Eight week old female athymic NCr-nu/nu mice were inoculated SC with 30-40 mg tumor fragments, propagated in an in vivo passage, in the area of the right flank. Tumor growth was monitored with vernier calipers and the tumor volume was calculated using the formula (0.5×[length×width^2]). When the mean tumor volume (MTV) reached approximately 167 mm^3 (range of 100-245 mm^3) animals were randomized into 12 treatment groups (n=8/group). The animals were dosed beginning 12 days after tumor inoculation with either vehicles or test compounds. The first day of treatment was designated as Day 0.
The 10 mg/mL solution was diluted with 100% PEG 400 for the lower dose.
Sodium alisertib was formulated in a half volume of 20% HPBCD in WFI and then diluted to a final volume (10% HPBCD/1% NaHCO3 in WFI) with 2% sodium bicarbonate in WFI.
The 2 vehicles, 100% PEG 400 (Vehicle 1) and 10% HPBCD/1% NaHCO3 in WFI (Vehicle 2) were administered (0.05 mL/10 g BW) concomitantly to mice in the vehicle group.
Tumor size and body weight were measured BIW beginning on the first day of treatment. Animals were terminated when their tumor reached approximately 2000 mm3, and the study was terminated on Day 62 post treatment initiation.
Inhibition of tumor growth was determined by calculating the percent TGI (MTV of the vehicle group−MTV of a treated group)/MTV of the vehicle group on Day 20 post treatment initiation. Statistical comparisons of tumor growth between treatment groups and vehicle were conducted using a linear mixed effects regression analysis on the ΔAUC.
Additional endpoints used to evaluate efficacy were: nonspecific deaths, complete tumor response, and the number of tumor-free survivors (TFS), defined as no measurable tumor observed on the last day of data collection prior to study termination (Day 62 post treatment initiation). A complete response (CR) was defined as a decrease in tumor mass to an undetectable size (<32 mm3).
The differences in the tumor growth trends over time between the vehicle control and treatment groups were assessed using linear mixed effects regression models. These models take into account that each animal was measured at multiple time points. A model was fit for the comparison, and the areas under the tumor volume-versus-time curve (AUCs) for control and treatment groups were calculated using the values predicted from the model.
These values were compared across treatment groups to assess whether the differences in trends over time were statistically significant. To compare pairs of treatment groups, the following mixed-effects linear regression model was fit to the data using the maximum likelihood method:
Where Yijk is the log 10 tumor value at the jth time point of the kth animal in the ith treatment, Yi0k is the day 0 (baseline) log 10 tumor value in the kth animal in the ith treatment, dayj was the median-centered time point and (along with day2j) was treated as a continuous variable, and eijk is the residual error. A spatial power law covariance matrix was used to account for the repeated measurements on the same animal over time. Interaction terms as well as day2j terms were removed if there were not statistically significant.
The −2 log likelihood of the full model was compared to one without any treatment terms (reduced model) and the difference in the values was tested using a Chi-squared test. The degrees of freedom of the test were calculated as the difference between the degrees of freedom of the full model and that of the reduced model.
The predicted differences in the log tumor values (Yijk-Yi0k, which can be interpreted as log 10 (fold change from day 0)) were taken from the above models to calculate mean AUC values for each treatment group. A dAUC value was then calculated as: […]
For synergy analysis, the observed differences in the log tumor values were used to calculate AUC values for each animal. […]

[2] = test system: A375 melanoma xenograft (B-Raf mutant); assay: In vivo tumor efficacy, B-Raf mutated A375 human melanoma xenograft model; design: species or system Mouse (Mus musculus) Athymic Balb/c Nude; conditions: for Mean Maximum % BWL: Day 0 to Day 21; for TGI: Day 21 post treatment initiation
Procedure: Each animal was inoculated with 3×10^6 A375 tumor cells (in 0.1 mL, 1:1 with Matrigel) into the right flank for tumor model development. Body weight and the tumor growth were monitored twice weekly. Tumor size was measured to the nearest 0.1 mm using vernier calipers and applying the formula V=W2×L/2, where V=volume, W=width, and L=length for the tumor xenograft. Xenografts were allowed to grow until they reached an average size of approximately 195 min3, 11 days after inoculation.
Sodium alisertib was formulated in 10% HPβCD plus 1% NaHCO3 in water for injection (WFI) (Vehicle 2). Alisertib was prepared and stored at room temperature (18 to 25° C.).
Animals in the vehicle treatment group were given both Vehicle 1 and Vehicle 2.
The dose volume for vehicle or compound was 5 mL/kg body weight.
Tumor size and body weight were measured twice weekly beginning on the day of animal grouping (e.g., Day 0). Animals were terminated when their tumor reached approximately 2000 mm3 and the study was terminated on Day 38 post treatment initiation.
Inhibition of tumor growth was determined by calculating the percent TGI (MTV of the vehicle group−MTV of a treated group)/MTV of the vehicle group] on Day 21 post treatment initiation. Statistical comparisons of tumor growth between treatment groups and vehicle were conducted using a linear mixed effects regression analysis on the ΔAUC.
Statistical analysis was carried out as described in Example 2.

[3] = Compound A 12.5 mg/kg/inj PO Q1D x 21 from Day 12 (+Vehicle 2)
[4] = Compound A 50 mg/kg/inj PO Q3D x 2/3 wks (BIW) from Day 12 (+Vehicle 2)
[5] = Compound A 12.5 mg/kg PO QD Days 1-21 (+Vehicle 2)
[6] = Compound A 50 mg/kg PO BIW Days 1, 4, 8, 11, 15, 18 (+Vehicle 2)
[7] = alisertib 20 mg/kg/inj PO Q1D x 21 from Day 12 (+Vehicle 1)
[8] = alisertib 10 mg/kg PO QD Days 1-21 (+Vehicle 1)
[9] = alisertib 20 mg/kg PO QD Days 1-21 (+Vehicle 1)

Compound: C[C@@H](NC(=O)c1ncnc(N)c1Cl)c1ncc(C(=O)Nc2cc(C(F)(F)F)c(Cl)cn2)s1 [Compound A, (R)-2-(1-(6-amino-5-chloropyrimidine-4-carboxamide)ethyl)-N-(5-chloro-4-(trifluoromethyl)pyridin-2-yl)thiazole-5-carboxamide]
- Mean Tumor Volume on Day 32 [1, 3]: 645 mm^3
- TGI on Day 32 [1, 3]: 70.7%
- Non-Specific Deaths [1, 3]: 0
- Regression (100%) [1, 3]: 0
- Tumor Free on Day 74 [1, 3]: 0
- Delta AUC [1, 3]: 37.3
- Mean Tumor Volume on Day 32 [1, 4]: 816 mm^3
- TGI on Day 32 [1, 4]: 62.9%
- Non-Specific Deaths [1, 4]: 0
- Regression (100%) [1, 4]: 0
- Tumor Free on Day 74 [1, 4]: 0
- Delta AUC [1, 4]: 35.6
- Mean Maximum % BWL [2, 5]: 0%
- TGI [2, 5]: 76.4%
- Mean Maximum % BWL [2, 6]: 0%
- TGI [2, 6]: 45.3%

Compound: COc1cc(Nc2ncc3c(n2)-c2ccc(Cl)cc2C(c2c(F)cccc2OC)=NC3)ccc1C(=O)O [alisertib, 4-{[9-chloro-7-(2-fluoro-6-methoxyphenyl)-5H-pyrimido[5,4-d][2]benzazepin-2-yl]amino}-2-methoxybenzoic acid, reference compound]
- Mean Tumor Volume on Day 32 [1, 7]: 872 mm^3
- TGI on Day 32 [1, 7]: 60.3%
- Non-Specific Deaths [1, 7]: 0
- Regression (100%) [1, 7]: 0
- Tumor Free on Day 74 [1, 7]: 0
- Delta AUC [1, 7]: 30.9
- Mean Maximum % BWL [2, 8]: 0%
- TGI [2, 8]: 21.7%
- Mean Maximum % BWL [2, 9]: 0%
- TGI [2, 9]: 40.7%
